These results are taken from US20240263163A1, “CELL-FREE REGIONS BY LABEL-FREE MAGNETIC EXCLUSION” (McMaster University, priority 2021, published 2024).

For series [1], the system named is HBEC3 KT cells. The experiment in a line: cell-free area closure of annular monolayers formed by magnetic exclusion. The series is classed as cell-based, human. To be noted: for closure rate of cell-free area: 0 h to 16 h, N=3. On the procedure:
The cells were maintained at 37° C. and 5% CO2 in a humidified atmosphere.
The magnetic exclusion technique was applied to form annular HBEC3 KT monolayers in which HBEC3 KT cells were trypsinized at ˜80% confluency. A 96-well flat-bottom TCT plate (IBIDI) was placed on an array of coaxially arranged ring and cylinder magnets (N52 grade, Zigmyster Magnets). The stock gadolinium-based paramagnetic solution (1 M) was diluted to 25×10^−3 M using the serum-free culture medium. A 250 μL suspension of ˜50,000 cells in 25×10^−3 M paramagnetic solution was added to the wells. After a 3 h incubation period (37° C. and 5% CO2 in a humidified atmosphere), the well plate was removed from the magnet array. The paramagnetic solution was removed, and the wells were washed twice with 200 μL culture medium. […] Tissue culture wells were plasma treated to enhance the attachment of the ECM proteins to the well surfaces. A 300 μL solution of collagen I (500 μg mL^−1) and fibronectin (12 μg mL^−1) was added to the wells. The well plate was incubated at 4° C. overnight, and subsequently, the coated wells were rinsed with phosphate-buffered saline (PBS). Annular HBEC3 KT monolayers were assembled magnetically on the coated surfaces. A fluorescent dye solution of 2 μM Calcein AM and Hoechst 33342 (2 drops per mL) was used to stain the monolayers. Brightfield and fluorescent images were taken using a 10× objective of an EVOS M7000 inverted microscope (ThermoFisher). Excitation/emission wavelengths of 470/525 nm and 357/447 nm were used for Calcein AM and Hoechst 33342, respectively.
The experimental study also involved assessing annular HBEC3 KT monolayer formation by gravitational settling. Annular inserts were 3D printed with a Formlabs Form 2 printer using a clear resin (RS-F2-GPCL-04). The inserts were attached to the well surfaces of a 12-well plate using patterned double-sided silicone adhesive tapes. The well plates containing the inserts were sterilized with UV radiation. A 100 μL suspension of ˜50,000 HBEC3 KT cells in culture medium was added to the inserts. After a 3 h incubation period, the inserts were removed, and the wells were washed twice with 500 μL culture medium.
Cell counting and geometric measurements were automatically determined in the experimental study from fluorescent images with ImageJ Fiji. The watershed segmentation algorithm (Process—Binary—Watershed) was used to distinguish cells in high cell density regions. The brightfield image contrast was adjusted using the Enhance Local Contrast (CLAHE) ImageJ plugin to measure the cell-free area. The Sobel edge detection algorithm (Process—Find edges) was used to highlight the boundaries of the monolayers. Next, image smoothing was performed using the Gaussian Blur filter (Process—Filter—Gaussian Blur). The cell-free areas were measured automatically after setting the image threshold. The equivalent diameters were calculated from the cell-free areas. The monolayer annulus width was determined by taking the average of the annulus widths measured at four orthogonal positions. The straight-line tool of ImageJ was used for the measurements.
The cell-free area closure of the annular monolayers was also studied in the experiments. […] The annular monolayers were produced on TCT and collagen I-fibronectin coated well surfaces to investigate the influence of the underlying substrate on the closure rate.
The initial boundary of the cell-free region is marked by a white dotted line (e.g., see FIG. 6A).
The closure rates are calculated by measuring the differences between the mean initial and final cell-free areas at 0 h and 16 h.

The subject of series [2] is HBEC3 KT cells. The experiment in a line: transcriptome analysis (Clariom S microarray). Type of series: cell-based, human. To be noted: 25×10^−3 M paramagnetic solution 3 h, RNA after 24 h, 21,448 genes, fold-change cutoff 2, FDR p<0.05, N=4. On the procedure:
The experimental study also involved performing transcriptome analysis. A 1.5 mL suspension of ˜500,000 HBEC3 KT cells in 25×10^−3 M paramagnetic solution was added to the wells of a 12-well TCT plate. Following a 3 h incubation period, the paramagnetic solution was replaced with the culture medium. After 24 h, total RNA was isolated and purified using RNeasy Mini Kit (Qiagen) as per the manufacturer's protocol. The RNA concentration and purity were measured using a spectrophotometer (NanoDrop, ThermoFisher). Transcriptome analysis was performed using Clariom S microarray gene chips (ThermoFisher).
In the experimental study, all statistical tests were performed using the GraphPad Prism software (version 9.0.0). Two-way ANOVA with Bonferroni post hoc tests were performed to assess the effect of residual Gd^3+ on cell viability and metabolism over time. […] A p-value<0.05 was considered statistically significant. The statistical evaluation of the microarray datasets was performed using the transcriptome analysis console (TAC) software (ThermoFisher). The raw gene expression data were normalized using the signal space transformation-robust multiarray analysis (SST-RMA) algorithm^57. A fold-change cutoff value of 2 was used to identify the differentially expressed genes^42. […]

The subject of series [3] is HBEC3 KT cells. The experiment in a line: live/dead assay (NucBlue Live / NucGreen Dead). Type of series: cell-based. On the procedure:
The experimental study also involved performing live/dead assays. A 400 μL suspension of ˜5000 HBEC3 KT cells in 25×10^−3 M paramagnetic solution was added to the wells of a 48-well TCT plate. After a 3 h incubation period, the paramagnetic solution was replaced with the culture medium. As controls, an equal number of cells were seeded into wells containing only the culture medium. The cell viability was assessed using the NucBlue Live and NucGreen Dead nuclear acid stains (ReadyProbes, ThermoFisher). Fluorescent images were taken at 24, 48, 96, and 144 h. Excitation/emission wavelengths of 357/447 nm and 470/525 nm were used for NucBlue and NucGreen, respectively. The quantification of live and dead cells was performed using ImageJ Fiji.
In the experimental study, all statistical tests were performed using the GraphPad Prism software (version 9.0.0). Two-way ANOVA with Bonferroni post hoc tests were performed to assess the effect of residual Gd^3+ on cell viability and metabolism over time. […] A p-value<0.05 was considered statistically significant. […]
(§1) The effect of the residual Gd^3+ on cell viability was assessed at 24, 48, 96, and 144 h using a live/dead assay. […] Cell metabolism, which is an indicator of viability, was also measured using a resazurin-based assay (Presto Blue HS). The increase in the fluorescence intensity values over time indicates cell proliferation.

Series [4] deals with HBEC3 KT cells. The experiment in a line: resazurin-based metabolism assay (Presto Blue HS). The series is classed as cell-based. To be noted: 25×10^−3 M paramagnetic solution 3 h, then 24, 48, 96 and 144 h. On the procedure:
The experimental study also involved performing a metabolism assay. A 250 μL suspension of ˜4000 HBEC3 KT cells in 25×10^−3 M paramagnetic solution was added to the wells of a 96-well plate. Following a 3 h incubation period, the paramagnetic solution was replaced with the culture medium. An equal number of cells suspended in the culture medium were added to the wells as controls. A resazurin-based assay (Presto Blue HS, ThermoFisher) was used to analyze cell metabolism at 24, 48, 96, and 144 h. The fluorescence intensity was measured at multiple spots within each well using excitation/emission wavelengths of 560/590 nm (SpectraMax i3, Molecular Devices). Blank wells containing only culture medium were used to account for background fluorescence. The average fluorescence intensity of the blanks was subtracted from the average fluorescence value obtained from each well of the Gadolinium and control groups.
In the experimental study, all statistical tests were performed using the GraphPad Prism software (version 9.0.0). […]
as §1
In general terms: The colour change of resazurin is a common sign of viable cells or microbes.

In series [5] the test system is cells. The conditions noted are these: concentration of 25 mM; cited from earlier work.
Series [6] concerns HBEC3 KT cells. Kind of series: reaction-diffusion (FKPP/Porous-Fisher) numerical model and logistic growth fit of cell-free area closure. The arrangement: species or system human. To be noted: for growth rate λ: from logistic growth equation, U at 16 h and U0; for D0 / D1 / m: Replicate 1. On the procedure:
Numerical model: The Fisher—Kolmogorov—Petrovsky—Piskunov (FKPP) reaction-diffusion equation is routinely used to model the closure of rectangular cell-free areas in scratch-based assays^27,47,48. The FKPP equation consists of a diffusion term that describes cell migration and a source term representing cell proliferation. The one-dimensional axisymmetric form of the FKPP equation is given by equation (6):^49
where U denotes the cell density (cells mm^−2) and D the cell diffusivity (mm^2 h^−1). The source term consists of a logistic growth function G=λ(1−U/K) with growth rate λ(h^−1) and carrying capacity K (cells mm^−2)^47. The carrying capacity is the maximum density for a cell monolayer when contact inhibition reduces the net cell proliferation to zero^47. The classical FKPP model assumes a constant cell diffusivity D=D0, where D0 is the diffusivity for isolated cells^27,47. In contrast, the Porous-Fisher model, which is an extension of the FKPP model, uses a diffusivity function D=D0(U/K)^m that increases with cell density (m>0), where D0 denotes the maximum diffusivity^47,50.
Besides cell migration, cell proliferation leads to the closure of cell-free areas. To determine […], a logistic growth equation^51 was used as shown in equations 7 and 8:
where U0 denotes the initial cell density. The maximum cell density determined by counting cells in the confluent regions of annular HBEC 3KT monolayers gives K=1690 cells mm^−2, which is consistent with the previously reported values^28,52. Experimentally derived values of U at 16 h and U0 were used to calculate λ from Equation 8.
Brightfield images of the annular monolayers were taken every 2 h over 16 h to track the closures of the cell-free areas on TCT surfaces. Consistent with the monolayer geometry, circular tracks of ˜0.14 mm width were superimposed on the brightfield images to manually count the cells within the domain 0≤r≤Rmax. The total number of cells counted in each track was divided by the respective annulus area to generate experimental cell density datasets. In the cell density plots, each track was represented by the radial distance of its midpoint from the center of the annular monolayer.
The finite volume method (FVM) with a time marching scheme was used to discretize and predict cell density (Up) values from Equation 6. A linear combination of the classical FKPP and Porous-Fisher diffusivity functions were used, i.e., D=D0+D1(U/K)^m, to model the spatiotemporal change in cell density on the TCT surfaces. The combined diffusivity function was previously used to fit cell density profiles of scratch assays with rectangular cell-free areas^50. A zero net flux boundary condition was imposed at both r=0 and r=Rmax^28,50.
As the cell density decreases at the boundary Rmax, the zero net flux condition applied at this boundary is an approximation. A Genetic Algorithm (GA)-based error minimization approach was implemented to minimize the root mean squared error (RMSE) between Up and the experimental (Uexp) cell density values^53 as shown in equation 9.
The cell density was measured at 15 locations within 0≤r≤Rmax and the index i denotes the location number. The index j indicates timepoints, where j=1, 2, 3 and 4 corresponds to t=4, 8, 12 and 16 h. […] The limits for D0 are 0≤D0≤0.004 mm^2 h^−1, where D0=0.004 mm^2 h^−1 is the maximum isolated-cell diffusivity value reported in the literature^28,50.
The experimentally obtained cell-free area closure rates were approximately two orders higher than the maximum value of D0(Section 2.3). […] The exponent m determines whether the diffusivity D changes linearly or non-linearly with a change in cell density. However, the biological meaning of m is not yet fully understood^47. Here, the limits 0≤m≤4 are considered, where m=4 is the highest value reported in the literature^28,50. The experimentally derived values of λ are used in the model. […]

Where [7] appears, read: EGF 0.16 ng mL^−1, TCT surfaces.
[8] abbreviates: EGF 0.80 ng mL^−1, TCT surfaces.

“Also recorded” adds a separate entry of the source.

With `[Gd+3]` [Gd^3+], in series [1] (vs gravity-assisted monolayers, no EGF, 0 and 16 h, TCT surfaces), the “effect on closure of magnetically assembled monolayers” value is recorded as “insignificant”. Also, the “differential gene expression / impact on transcriptional profiles” value in series [2] was “no statistically significant differentially expressed genes; also recorded: statistically insignificant”. Moreover, in series [3] (25×10^−3 M paramagnetic solution 3 h, then 24, 48, 96 and 144 h, vs control), the “effect on cell viability (viable cell counts)” value was “insignificant”. Besides, the “toxicity to the cells” value in series [3] (live/dead and metabolism assays, residual Gd^3+) is “not toxic”. Moreover, in series [4], the “cell metabolism (fluorescence intensity) vs control” value is “No significant difference”. Besides, the “effect on cell viability” value in series [5] is listed as “does not affect cell viability”.

As for epidermal growth factor [EGF], the “closure rate of cell-free area” value was around 0.56±0.05 mm^2 h^−1 in series [1] (TCT surfaces, 0.16 ng mL^−1 EGF); around 0.58±0.01 mm^2 h^−1 in series [1] (TCT surfaces, 0.8 ng mL^−1 EGF); around 0.61±0.01 mm^2 h^−1 in series [1] (collagen I-fibronectin surfaces, 0.16 ng mL^−1 EGF); around 0.62±0.02 mm^2 h^−1 in series [1] (collagen I-fibronectin surfaces, 0.8 ng mL^−1 EGF). Further, the “change in cell-free areas” value in series [1] (collagen I-fibronectin surfaces, 0.8 ng mL^−1 EGF, at 4 h, in contrast to TCT surfaces) was “significant decrease”. In addition, the “closure of cell-free regions” value in series [1] (collagen I-fibronectin surfaces, 0.8 ng mL^−1 EGF, at 16 h) is on record as “near-complete closure”. Also, the “growth rate λ” value in series [6] (0.16 ng mL^−1 EGF) and in series [6] (0.8 ng mL^−1 EGF) was around 0.03 h⁻¹ throughout. For the same molecule, the λ in series [6] (EGF 0.16 ng mL^−1) and in series [6] (EGF 0.80 ng mL^−1) was 2.91 h^−1 (×10^−2) throughout. In addition, the D0 in series [6] (setting [7]) was 3.06 mm^2 h^−1 (×10^−3); in series [6] (setting [8]) it was 3.91 mm^2 h^−1 (×10^−3). Also, the figures for the D1 in series [6] (setting [7]) and in series [6] (setting [8]) were 3.02 mm^2 h^−1 and 3.75 mm^2 h^−1, respectively. Also, the figures for the m in series [6] (setting [7]) and in series [6] (setting [8]) were 1.97 and 2.62, respectively. Further, the “φ (dimensionless number, higher indicates faster closure)” value in series [6] (EGF 0.16 ng mL^−1, tmax=24 h) is given as 3.23; in series [6] (EGF 0.80 ng mL^−1, tmax=24 h), 3.60.
